According to patent publication US11730712B2, “Functionalized long-chain hydrocarbon mono- and di-carboxylic acids and derivatives thereof, and their use for the prevention or treatment of disease” (ESPERVITA THERAPEUTICS, INC., priority 2021, dated 2023):

Test system: liver fibrosis gene panel (770 genes)
Experiment: Nanostring nCounter Fibrosis panel gene expression in liver of DEN-injected mice
Format: in vivo, mouse
Settings: vs vehicle
Description: Nanostring Analysis. RNA was extracted from paired liver and tumor tissue from vehicle, Compound I-1 (100 mg/kg) and Compound I-32 (100 mg/kg) treated mice using an RNeasy kit (Qiagen, Calif., USA) as per manufacturer's protocol. All RNA samples passed the BioAnalyzer quality control test. The expression of target genes in liver and tumor were analyzed using the nCounter Fibrosis and Cancer Panel (NanoString Technologies, Inc., WA, USA), respectively according to manufacturer's protocol at the McMaster Genomics Facility. Technical and biological normalization against global geometric mean was performed in nSolver 4.0 software (NanoString Technologies). Technical normalization was performed in the nSolver software (version 4.0.70) by normalizing sample target raw counts to the geometric mean of positive control spike-ins. Biological normalization was performed by normalizing sample target raw counts to the geometric mean of selected housekeeping genes (Ppia, Nubp1, Nol7, Armh3, Rplp0, Cnot10, Pgk1, and Acad9). Pathway scores were calculated as the first principal component of the normalized expression values for all genes in each pathway and samples were compiled according to experimental groups to determine average pathway scores. Statistical significance was calculated between experimental groups using multiple t-tests and p-values were corrected for multiple comparisons using Benjamin-Hochberg false discovery rate.
Molecular analysis. To identify the pathways modulated in the liver and tumor tissue, nanostring analysis of fibrosis and cancer, pathways, respectively were completed in an n=8 mice treated with vehicle or Compound I-32 or Compound I-1 at 100 mg/kg.

In the case of CC(C)(CCCCc1cccc(CCCCC(C)(C)C(=O)O)c1)C(=O)O [Compound I-32, 6-[3-(5-carboxy-5-methylhexyl)-phenyl]-2,2-dimethylhexanoic acid], the “Cpt1a Log2FC” value (NM_013495, 100 mg/kg) is reported as −0.363, the “Creb3 Log2FC” value (NM_013497, 100 mg/kg) is reported as −0.409 and the “P3h3 Log2FC” value (NM_013534, 100 mg/kg) is reported as −0.96. The “Rora Log2FC” value (NM_013646, 100 mg/kg) was 0.258, the “Slc25a10 Log2FC” value (NM_013770, 100 mg/kg) was 0.324 and the “H2-M3 Log2FC” value (NM_013819, 100 mg/kg) was −0.633. For the same compound, the “Xbp1 Log2FC” value (NM_013842, 100 mg/kg) was −0.29, the “Col5a1 Log2FC” value (NM_015734, 100 mg/kg) was −0.601 and the “Ero1l Log2FC” value (NM_015774, 100 mg/kg) was 0.269. The “Cfhr1 Log2FC” value (NM_015780, 100 mg/kg) was −0.283, the “Isg15 Log2FC” value (NM_015783, 100 mg/kg) was −0.673 and the “C6 Log2FC” value (NM_016704, 100 mg/kg) was −1.04. The “Irf3 Log2FC” value (NM_016849, 100 mg/kg) was −0.206, the “Actr1a Log2FC” value (NM_016860, 100 mg/kg) was −0.192 and the “Ywhag Log2FC” value (NM_018871, 100 mg/kg) was 0.265. The “Fbp1 Log2FC” value (NM_019395, 100 mg/kg) was −0.981, the “Ppp2ca Log2FC” value (NM_019411, 100 mg/kg) was −0.123 and the “Atf7ip Log2FC” value (NM_019426, 100 mg/kg) was −0.289. For the same compound, the “Ndufa1 Log2FC” value (NM_019443, 100 mg/kg) was 0.156, the “Htra2 Log2FC” value (NM_019752, 100 mg/kg) was −0.286 and the “Cpb2 Log2FC” value (NM_019775, 100 mg/kg) was −0.467. For the same compound, the “Uba52 Log2FC” value (NM_019883, 100 mg/kg) was 0.433, the “Ube2d2a Log2FC” value (NM_019912, 100 mg/kg) was −0.231 and the “Aldh9a1 Log2FC” value (NM_019993, 100 mg/kg) was 0.467. For the same compound, the “Angptl4 Log2FC” value (NM_020581, 100 mg/kg) was 0.413, the “Isg20 Log2FC” value (NM_020583, 100 mg/kg) was −0.491 and the “Abcb11 Log2FC” value (NM_021022, 100 mg/kg) was −0.503. For the same compound, the “Rps6kb2 Log2FC” value (NM_021485, 100 mg/kg) was −0.398, the “Cxcl12 Log2FC” value (NM_021704, 100 mg/kg) was −0.535 and the “Apoc3 Log2FC” value (NM_023114, 100 mg/kg) was −0.391. For the same compound, the “Cxcl16 Log2FC” value (NM_023158, 100 mg/kg) was −0.445, the “Ern1 Log2FC” value (NM_023913, 100 mg/kg) was −0.451 and the “Sec61b Log2FC” value (NM_024171, 100 mg/kg) was −0.37. For the same compound, the “Hsbp1 Log2FC” value (NM_024219, 100 mg/kg) was −0.155, the “Cyp27a1 Log2FC” value (NM_024264, 100 mg/kg) was −0.71 and the “Fabp4 Log2FC” value (NM_024406, 100 mg/kg) was 0.887. For the same compound, the “Ndufb5 Log2FC” value (NM_025316, 100 mg/kg) was 0.36, the “Ssr2 Log2FC” value (NM_025448, 100 mg/kg) was −0.208 and the “Psenen Log2FC” value (NM_025498, 100 mg/kg) was −0.154. For the same compound, the “Ndufc1 Log2FC” value (NM_025523, 100 mg/kg) was 0.363, the “Cox6b1 Log2FC” value (NM_025628, 100 mg/kg) was 0.405 and the “Uqcrh Log2FC” value (NM_025641, 100 mg/kg) was 0.28. For the same compound, the “Uqcrfs1 Log2FC” value (NM_025710, 100 mg/kg) was 0.188, the “Map1lc3a Log2FC” value (NM_025735, 100 mg/kg) was 0.744 and the “Ndufb8 Log2FC” value (NM_026061, 100 mg/kg) was 0.279. The “Erp29 Log2FC” value (NM_026129, 100 mg/kg) was −0.277, the “Uqcrb Log2FC” value (NM_026219, 100 mg/kg) was 0.377 and the “Sugt1 Log2FC” value (NM_026474, 100 mg/kg) was 0.15. For the same compound, the “Atg101 Log2FC” value (NM_026566, 100 mg/kg) was −0.483, the “Ndufs3 Log2FC” value (NM_026688, 100 mg/kg) was 0.148 and the “Ifi35 Log2FC” value (NM_027320, 100 mg/kg) was −0.447. For the same compound, the “Pgm2 Log2FC” value (NM_028132, 100 mg/kg) was 0.339, the “Phykpl Log2FC” value (NM_028398, 100 mg/kg) was −0.288 and the “Pik3cb Log2FC” value (NM_029094, 100 mg/kg) was −0.412. The “Hcar2 Log2FC” value (NM_030701, 100 mg/kg) was 1.41, the “Cpn1 Log2FC” value (NM_030703, 100 mg/kg) was 0.351 and the “Slc2a2 Log2FC” value (NM_031197, 100 mg/kg) was −0.47. The “Lamtor2 Log2FC” value (NM_031248, 100 mg/kg) was 0.189, the “Dock2 Log2FC” value (NM_033374, 100 mg/kg) was −0.474 and the “Ube2n Log2FC” value (NM_080560, 100 mg/kg) was −0.194. For the same compound, the “Elovl6 Log2FC” value (NM_130450, 100 mg/kg) was 1.22, the “Acaca Log2FC” value (NM_133360, 100 mg/kg) was 0.893 and the “Fgg Log2FC” value (NM_133862, 100 mg/kg) was −0.387. For the same compound, the “Acacb Log2FC” value (NM_133904, 100 mg/kg) was 0.681, the “Il1rap Log2FC” value (NM_134103, 100 mg/kg) was −0.868 and the “Ptpa Log2FC” value (NM_138748, 100 mg/kg) was 0.222. For the same compound, the “Mylk Log2FC” value (NM_139300, 100 mg/kg) was −0.532, the “Fegr4 Log2FC” value (NM_144559, 100 mg/kg) was −0.638 and the “Aldob Log2FC” value (NM_144903, 100 mg/kg) was −0.6. The “C1s1 Log2FC” value (NM_144938, 100 mg/kg) was −0.755, the “Txndc5 Log2FC” value (NM_145367, 100 mg/kg) was −0.321 and the “Ldlrap1 Log2FC” value (NM_145554, 100 mg/kg) was −0.189. The “Jak1 Log2FC” value (NM_146145, 100 mg/kg) was −0.166, the “C8a Log2FC” value (NM_146148, 100 mg/kg) was −1.37 and the “Pkhdi Log2FC” value (NM_153179, 100 mg/kg) was −1.12. For the same compound, the “Nckap1l Log2FC” value (NM_153505, 100 mg/kg) was −0.653, the “Mbtps2 Log2FC” value (NM_172307, 100 mg/kg) was 0.306 and the “Cyp4a12a Log2FC” value (NM_177406, 100 mg/kg) was 1.42. The “Acaa2 Log2FC” value (NM_177470, 100 mg/kg) was 0.314, the “Jmjd4 Log2FC” value (NM_178659, 100 mg/kg) was −0.516 and the “Nceh1 Log2FC” value (NM_178772, 100 mg/kg) was 0.444. The “Hadha Log2FC” value (NM_178878, 100 mg/kg) was 0.903, the “Mfap3 Log2FC” value (NM_180599, 100 mg/kg) was −0.362 and the “Bst2 Log2FC” value (NM_198095, 100 mg/kg) was 0.494. The “Acsl4 Log2FC” value (NM_207625, 100 mg/kg) was 0.737, the “Cflar Log2FC” value (NM_207653, 100 mg/kg) was −0.25 and the “Egfr Log2FC” value (NM_207655, 100 mg/kg) was −0.93. The “Stat3 Log2FC” value (NM_213659, 100 mg/kg) was −0.686, the “H2-K1 Log2FC” value (NM_001001892, 100 mg/kg) was −0.168 and the “Kdm2a Log2FC” value (NM_001001984, 100 mg/kg) was −0.255. For the same compound, the “Cfhr2 Log2FC” value (NM_001025575, 100 mg/kg) was −0.596, the “Ndufs5 Log2FC” value (NM_001030274, 100 mg/kg) was 0.381 and the “Itga1 Log2FC” value (NM_001033228, 100 mg/kg) was −0.312. The “Dock1 Log2FC” value (NM_001033420, 100 mg/kg) was −0.347, the “Xaf1 Log2FC” value (NM_001037713, 100 mg/kg) was −0.701 and the “Banf1 Log2FC” value (NM_001038231, 100 mg/kg) was 0.339. The “Smurf Log2FC” value (NM_001038627, 100 mg/kg) was −0.969, the “Seh1l Log2FC” value (NM_001039088, 100 mg/kg) was 0.216 and the “Nrp2 Log2FC” value (NM_001077403, 100 mg/kg) was 0.619. For the same compound, the “Ptafr Log2FC” value (NM_001081211, 100 mg/kg) was −0.408, the “Brpf3 Log2FC” value (NM_001081315, 100 mg/kg) was 0.3 and the “Aqp8 Log2FC” value (NM_001109045, 100 mg/kg) was −0.632. The “Igf1 Log2FC” value (NM_001111274, 100 mg/kg) was −0.588, the “Itga9 Log2FC” value (NM_001113514, 100 mg/kg) was −0.212 and the “Il1r1 Log2FC” value (NM_001123382, 100 mg/kg) was −1.16. For the same compound, the “Aldh7a1 Log2FC” value (NM_001127338, 100 mg/kg) was −0.344, the “Rnf152 Log2FC” value (NM_001160368, 100 mg/kg) was −0.687 and the “Cyfip1 Log2FC” value (NM_001164661, 100 mg/kg) was −0.229. For the same compound, the “Slc25a13 Log2FC” value (NM_001177572, 100 mg/kg) was −0.179, the “Syk Log2FC” value (NM_001198977, 100 mg/kg) was −0.772 and the “Cd84 Log2FC” value (NM_001252472, 100 mg/kg) was −0.6. For the same compound, the “Apoc2 Log2FC” value (NM_001277944, 100 mg/kg) was −0.94, the “Ncf1 Log2FC” value (NM_001286037, 100 mg/kg) was −0.635 and the “Cd68 Log2FC” value (NM_001291058, 100 mg/kg) was −0.732. The “Itga5 Log2FC” value (NM_001314041, 100 mg/kg) was −0.402 and the “Col6a3 Log2FC” value (XM_897036, 100 mg/kg) was −0.679.
